Data published in patent publication US10392422B2, “Macrocyclic broad spectrum antibiotics” (priority 2014, dated 2019).
≈ marks a conversion by molar mass, not a printed value. Where two headings read alike, the source gives them in different places.

Columns and labels:
Assay in all cases: MIC, broth micro-dilution technique (CLSI)
[1] = test system: Escherichia coli MC4100 harboring the IMP4213; format: cell-based; conditions: for MIC: Escherichia coli, 22 h
Procedure: (§1) In vitro antimicrobial activity of each compound was determined by measuring minimal inhibitor concentrations (MICs) using the broth micro-dilution technique as approved by the Clinical and Laboratory Standards Institute (CLSI) (Methods for Dilution Antimicrobial Susceptibility Tests for Bacteria that Grow Aerobically; Approved Standard—Eighth Edition. CLSI document M07-A8. Wayne, Pa.: Clinical and Laboratory Standards; 2009). Antibacterial activity was measured against three strains of bacteria: a Methicillin Resistant Staphylococcus aureus strain USA 300 (NRS384); a MRSA COL (NRS100), another Methicillin Resistant Staphylococcus aureus strain; and a strain of Escherichia coli MC4100 harboring the IMP4213, which results in increased outer-membrane permeability (B Martin and Silhavy T. Imp/OstA is required for cell envelope biogenesis in Escherichia coli. (2002) Molecular Microbiology, 45(5), 1289-1302). Cells were inoculated onto plates of Trypyticase Soy Agar or Luria Agar respectively and grown at 35° C. for 20 hours. Inocula suspensions were prepared by scraping cells into 1 ml of testing media (cation adjusted Mueller Hinton Broth supplemented with 0.002% v/v Tween-80) and diluting to a final OD600 nm of 0.01.
(§2) Test compounds were prepared in DMSO at a concentration of 10 mg/ml. These compound stocks were diluted into testing media at a concentration of 64 μg/ml and serial 2-fold dilutions were made in the same media, in 96-well U bottom microtiter dishes, for a total of 10 compound concentrations (Table 1). In modified protocols (Table 2), compound stocks were diluted into testing media at a concentration of 4 μg/mL and serial 2-fold dilutions were made in the same media, in 96-well U bottom microtiter dishes, for a total of 10 compound concentrations. Inocula suspensions were added to the 2-fold serial dilutions of test compounds to a final density of OD OD600 nm of 0.0005 and incubated at 35° C. for 22 hours. […] The results from the protocol starting from a concentration of 64 µg/mL are listed in Table 1 and the results from the modified protocol are shown in Table 2.

[2] = test system: Methicillin Resistant Staphylococcus aureus strain USA 300 (NRS384); format: cell-based; conditions: for MIC: Staphylococcus aureus, 22 h, read-out: MIC (μg/mL) S. aureus
Procedure: as §1, §2

MRSA COL (NRS100) = format: cell-based, Staphylococcus aureus; conditions: for MIC: Staphylococcus aureus, 22 h, read-out: MIC (μg/mL) (COL)
Procedure: as §1, §2

[3] = read-out: MIC (μg/mL) E. coli, Table 2 modified protocol: serial 2-fold dilutions starting from 4 μg/mL, 35° C., 22 hours
[4] = Table 2 modified protocol: serial 2-fold dilutions starting from 4 μg/mL, 35° C., 22 hours
[5] = read-out: MIC (μg/mL) E. coli, Table 1 protocol: serial 2-fold dilutions starting from 64 μg/ml, 35° C., 22 hours
[6] = Table 1 protocol: serial 2-fold dilutions starting from 64 μg/ml, 35° C., 22 hours

Row | SMILES | MIC [1, 3] | MIC [1, 5] | MIC [2, 6] | MIC (MRSA COL (NRS100); [6]) | MIC [2] | MIC (MRSA COL (NRS100)) | further results
1 | C[C@@H]1NC(=O)[C@@H](N(C)C(=O)[C@H](CCCCN)NC(=O)c2ccc(-c3ccc(Cl)cc3)cc2)c2ccc(OCCN)c(c2)-c2cc(ccc2OCCN)C[C@@H](C(=O)N[C@@H](C)C(=O)c2nc(Cl)n[nH]2)NC1=O [Compound 275] | 2 µg/mL (≈ 2 µM) | – | – | – | – | – | MIC [2, 4]: 1 µg/mL (≈ 1 µM); MIC (MRSA COL (NRS100); [4]): 0.13 µg/mL (≈ 0.13 µM)
2 | CC(=O)[C@H](C)NC(=O)[C@@H]1Cc2ccc(O)c(c2)-c2cc(cc(CCCN)c2OCCN)[C@H](N(C)C(=O)[C@H](CCCCN)NC(=O)c2ccc(-c3ccccc3)cc2)C(=O)N[C@@H](C)C(=O)N1 [Compound 213] | – | 4 µg/mL (≈ 4.49 µM) | 16 µg/mL (≈ 18 µM) | 2 µg/mL (≈ 2.24 µM) | – | – | –
3 | C[C@@H]1NC(=O)[C@@H](N(C)C(=O)[C@H](CCCCN)NC(=O)c2ccc(-c3ccc(Cl)cc3)cc2)c2ccc(O)c(c2)-c2cc(ccc2O)C[C@@H](C(=O)N[C@@H](C)C(=O)N(C)[C@@H](C)C(N)=O)NC1=O [Compound 183] | – | 32 µg/mL (≈ 35.1 µM) | 8 µg/mL (≈ 8.78 µM) | 2.4 µg/mL (≈ 2.63 µM) | – | – | –
4 | C[C@@H]1NC(=O)[C@@H](N(C)C(=O)[C@H](CCCCN)NC(=O)c2ccc(-c3ccc(Cl)cc3)cc2)c2ccc(O)c(c2)-c2cc(ccc2O)C[C@@H](C(=O)NCC(=O)C2CO2)NC1=O (some centres unmarked) [Compound 252] | > 4 µg/mL | – | – | – | – | – | MIC [2, 4]: > 4 µg/mL; MIC (MRSA COL (NRS100); [4]): > 4 µg/mL
5 | CCCCCCCCCCNCCS(=O)(=O)N[C@@H](CCCCN)C(=O)N(C)[C@@H]1C(=O)N[C@@H](C)C(=O)N[C@H](C(=O)N[C@@H](C)C(C)=O)Cc2ccc(O)c(c2)-c2cc1ccc2O [Compound 163] | – | 16 µg/mL (≈ 18.6 µM) | 0.13 µg/mL (≈ 0.151 µM) | 0.11 µg/mL (≈ 0.128 µM) | – | – | –
6 | CCCCCCCCc1ccc(C(=O)N[C@@H](CCCN)C(=O)N(C)[C@@H]2C(=O)N[C@@H](C)C(=O)N[C@H](C(=O)N[C@@H](C)B3O[C@@H]4C[C@@H]5C[C@@H](C5(C)C)[C@]4(C)O3)Cc3ccc(OCCCN)c(c3)-c3cc2ccc3OCCCN)cc1 [Compound 323] | 0.063 µg/mL (≈ 0.0593 µM) | – | – | – | 0.13 µg/mL (≈ 0.122 µM) | 0.031 µg/mL (≈ 0.0292 µM) | –
7 | CCCCCCCCCCCCCC(=O)N[C@@H](CCN)C(=O)N(C)[C@@H]1C(=O)N[C@@H](C)C(=O)N[C@H](C(=O)N[C@@H](C)B2O[C@@H]3C[C@@H]4C[C@@H](C4(C)C)[C@]3(C)O2)Cc2ccc(OCCN)c(c2)-c2cc1ccc2OCCN [Compound 325] | 0.13 µg/mL (≈ 0.128 µM) | – | – | – | 0.13 µg/mL (≈ 0.128 µM) | 0.023 µg/mL (≈ 0.0227 µM) | –
8 | CCCCCCCCCCNCCS(=O)(=O)N[C@@H](CCCCN)C(=O)N(C)[C@@H]1C(=O)N[C@@H](C)C(=O)N[C@H](C(=O)N[C@@H](C)C(C)=O)Cc2ccc(O)c(c2)-c2cc1ccc2OCCN [Compound 216] | – | 64 µg/mL (≈ 71 µM) | 0.13 µg/mL (≈ 0.144 µM) | 0.063 µg/mL (≈ 0.0699 µM) | – | – | –
9 | CCCCCCCCc1ccc(C(=O)N[C@@H](CCCN)C(=O)N(C)[C@@H]2C(=O)N[C@@H](C)C(=O)N[C@H](C(=O)N[C@@H](C)B3O[C@@H]4C[C@@H]5C[C@@H](C5(C)C)[C@]4(C)O3)Cc3ccc(OCCN)c(c3)-c3cc2ccc3OCCN)c(C)c1 [Compound 321] | – | 0.063 µg/mL (≈ 0.06 µM) | – | – | 0.094 µg/mL (≈ 0.0896 µM) | 0.063 µg/mL (≈ 0.06 µM) | –
10 | Cc1nc(C(=O)[C@H](C)NC(=O)[C@@H]2Cc3ccc(O)c(c3)-c3cc(ccc3O)[C@H](N(C)C(=O)[C@H](CCCCN)NC(=O)c3ccc(-c4ccc(Cl)cc4)cc3)C(=O)N[C@@H](C)C(=O)N2)no1 [Compound 237] | – | 8 µg/mL (≈ 8.95 µM) | 12 µg/mL (≈ 13.4 µM) | 4 µg/mL (≈ 4.48 µM) | – | – | –
11 | CCCCCCCCc1ccc(C(=O)N(C)[C@@H]2C(=O)N[C@@H](C)C(=O)N[C@H](C(=O)NCB3O[C@@H]4C[C@@H]5C[C@@H](C5(C)C)[C@]4(C)O3)Cc3ccc(OCCN)c(c3)-c3cc2ccc3OCCN)cc1 [Compound 320] | – | 4 µg/mL (≈ 4.41 µM) | – | – | 6 µg/mL (≈ 6.62 µM) | 2 µg/mL (≈ 2.21 µM) | –
12 | CC(NC(=O)[C@@H]1Cc2ccc(O)c(c2)-c2cc(ccc2O)[C@H](N(C)C(=O)[C@H](CCCCN)NC(=O)c2ccc(-c3ccc(Cl)cc3)cc2)C(=O)N[C@@H](C)C(=O)N1)C(=O)Cn1cc(C(N)=O)nn1 (some centres unmarked) [Compound 246] | > 4 µg/mL | – | – | – | – | – | MIC [2, 4]: 4 µg/mL (≈ 4.28 µM); MIC (MRSA COL (NRS100); [4]): 3 µg/mL (≈ 3.21 µM)
13 | C[C@H](NC(=O)[C@@H]1Cc2ccc(O)c(c2)-c2cc(ccc2O)[C@H](N(C)C(=O)[C@H](CCCCN)NC(=O)c2ccc(-c3ccc(Cl)cc3)cc2)C(=O)N[C@@H](C)C(=O)N1)C(=O)CCc1c[nH]cn1 [Compound 132] | – | > 64 µg/mL | 32 µg/mL (≈ 35.3 µM) | 8 µg/mL (≈ 8.84 µM) | – | – | –
14 | CCCCCCCCCCNCCS(=O)(=O)N[C@@H](CCCCN)C(=O)N(C)[C@@H]1C(=O)N[C@@H](C)C(=O)N[C@H](C(=O)N[C@@H](C)C(=O)N2CCC[C@H]2C(N)=O)Cc2ccc(O)c(c2)-c2cc1ccc2O [Compound 215] | – | > 64 µg/mL | 0.5 µg/mL (≈ 0.523 µM) | 0.25 µg/mL (≈ 0.261 µM) | – | – | –
15 | CCCCc1ccc(-c2ccc(C(=O)N[C@@H](CCCCN)C(=O)N(C)[C@@H]3C(=O)N[C@@H](C)C(=O)N[C@H](C(=O)NCc4nnn[nH]4)Cc4ccc(OCCN)c(c4)-c4cc3ccc4OCCN)cc2)cc1 [Compound 328] | – | – | – | – | 2 µg/mL (≈ 2.12 µM) | 0.5 µg/mL (≈ 0.529 µM) | MIC ([1]; read-out: MIC (μg/mL) E. coli): 0.25 µg/mL (≈ 0.265 µM)
16 | CCCCCCCCCCCCCC(=O)N[C@@H](CN)C(=O)N(C)[C@@H]1C(=O)N[C@@H](C)C(=O)N[C@H](C(=O)O)Cc2ccc(OCCN)c(c2)-c2cc1ccc2OCCN [Compound 298] | 0.031 µg/mL (≈ 0.0389 µM) | – | – | – | 0.38 µg/mL (≈ 0.477 µM) | 0.063 µg/mL (≈ 0.0791 µM) | –
17 | CCCCCCCCCCNCCC(=O)N[C@@H](CCCCN)C(=O)N(C)[C@@H]1C(=O)N[C@@H](C)C(=O)N[C@H](C(=O)N[C@@H](C)C(=O)c2nnn[nH]2)Cc2ccc(O)c(c2)-c2cc1ccc2OCCN [Compound 193] | – | 8 µg/mL (≈ 8.7 µM) | 0.5 µg/mL (≈ 0.544 µM) | 0.13 µg/mL (≈ 0.141 µM) | – | – | –
18 | CCCCCCCCCCNCCC(=O)N[C@@H](CCCCN)C(=O)N(C)[C@@H]1C(=O)N[C@@H](C)C(=O)N[C@H](C(=O)N[C@@H](C)C(=O)N(C)[C@H]2CCNC2=O)Cc2ccc(O)c(c2)-c2cc1ccc2OCCN [Compound 187] | – | 23 µg/mL (≈ 23.9 µM) | 3.7 µg/mL (≈ 3.84 µM) | 0.5 µg/mL (≈ 0.519 µM) | – | – | –
19 | CCCCCCCCCCNCCC(=O)N[C@@H](CCCCN)C(=O)N(C)[C@@H]1C(=O)N[C@@H](C)C(=O)N[C@H](C(=O)N[C@@H](C)C(C)=O)Cc2ccc(OC3O[C@H](CO)[C@@H](O)[C@H](O)[C@H]3N)c(c2)-c2cc1ccc2OC1O[C@H](CO)[C@@H](O)[C@H](O)[C@H]1N (some centres unmarked) [Compound 340] | > 4 µg/mL | – | – | – | > 4 µg/mL | 2 µg/mL (≈ 1.75 µM) | –
20 | CCCCCCCCCCNCCC(=O)N[C@@H](CCCCN)C(=O)N(C)[C@@H]1C(=O)N[C@@H](C)C(=O)N[C@H](C(=O)N[C@@H](C)C(=O)c2nnn[nH]2)Cc2ccc(OCCN)c(c2)-c2cc1ccc2OCCN.O=CO [Compound 271] | – | – | – | – | – | – | MIC (μg/mL) E. coli [1, 4]: 4 µg/mL; MIC (μg/mL) S. aureus [2, 4]: 0.047 µg/mL; MIC (μg/mL) (COL) (MRSA COL (NRS100); [4]): 0.016 µg/mL
21 | C[C@@H]1NC(=O)[C@@H](N(C)C(=O)[C@H](CCCCN)NC(=O)c2ccc(-c3cc(Cl)cc(Cl)c3)cc2)c2ccc(OCCN)c(c2)-c2cc(ccc2OCCN)C[C@@H](C(=O)O)NC1=O [Compound 280] | 0.25 µg/mL (≈ 0.285 µM) | – | – | – | 0.75 µg/mL (≈ 0.855 µM) | 0.38 µg/mL (≈ 0.433 µM) | –
22 | C[C@@H]1NC(=O)[C@@H](N(C)C(=O)[C@H](CCCCN)NC(=O)c2ccc(-c3ccc(Cl)cc3)cc2)c2ccc(O)c(c2)-c2cc(ccc2O)C[C@@H](C(=O)N[C@@H](C)C(=O)N2CCC[C@H]2C(=O)NCC(N)=O)NC1=O [Compound 178] | – | – | 32 µg/mL (≈ 32.6 µM) | 16 µg/mL (≈ 16.3 µM) | – | – | –
